Data reported in paper PMC7144264 (Journal of Enzyme Inhibition and Medicinal Chemistry, 2020).
pIC50, pKi: −log10 of the molar value. “Also recorded” adds a separate entry of the source. Values belong to the molecule of their own block, whether it stands above or below them.

Assays:
[1] = mouse; cited from earlier work
[2] = in vivo; cited from earlier work
ovine COX-1 [3] = target: T1, ovine COX-1 (Ovis aries, UniProt P05979); conditions: read-out: concentration reducing the rate of cyclooxygenation to about half; COX-1, AA as substrate; cited from earlier work
T1 sequence (P05979 25-600): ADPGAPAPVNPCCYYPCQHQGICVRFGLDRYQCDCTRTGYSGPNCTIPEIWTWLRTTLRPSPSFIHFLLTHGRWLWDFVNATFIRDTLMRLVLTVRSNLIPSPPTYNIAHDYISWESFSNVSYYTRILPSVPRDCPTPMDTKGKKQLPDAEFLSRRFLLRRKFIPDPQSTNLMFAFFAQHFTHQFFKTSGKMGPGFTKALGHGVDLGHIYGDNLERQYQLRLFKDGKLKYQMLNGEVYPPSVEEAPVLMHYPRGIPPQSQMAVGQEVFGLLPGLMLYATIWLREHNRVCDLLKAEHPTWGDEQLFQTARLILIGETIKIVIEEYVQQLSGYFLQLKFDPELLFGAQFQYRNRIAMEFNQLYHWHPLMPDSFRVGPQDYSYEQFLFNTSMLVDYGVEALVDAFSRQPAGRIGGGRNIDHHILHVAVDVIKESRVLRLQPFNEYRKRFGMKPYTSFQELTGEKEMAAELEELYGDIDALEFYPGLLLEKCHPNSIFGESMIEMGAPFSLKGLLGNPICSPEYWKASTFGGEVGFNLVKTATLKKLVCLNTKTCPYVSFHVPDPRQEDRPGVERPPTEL

human recombinant COX-2 [4] = target: T2, human recombinant COX-2 (Homo sapiens, UniProt P35354); conditions: cited from earlier work
T2 sequence (P35354 18-604): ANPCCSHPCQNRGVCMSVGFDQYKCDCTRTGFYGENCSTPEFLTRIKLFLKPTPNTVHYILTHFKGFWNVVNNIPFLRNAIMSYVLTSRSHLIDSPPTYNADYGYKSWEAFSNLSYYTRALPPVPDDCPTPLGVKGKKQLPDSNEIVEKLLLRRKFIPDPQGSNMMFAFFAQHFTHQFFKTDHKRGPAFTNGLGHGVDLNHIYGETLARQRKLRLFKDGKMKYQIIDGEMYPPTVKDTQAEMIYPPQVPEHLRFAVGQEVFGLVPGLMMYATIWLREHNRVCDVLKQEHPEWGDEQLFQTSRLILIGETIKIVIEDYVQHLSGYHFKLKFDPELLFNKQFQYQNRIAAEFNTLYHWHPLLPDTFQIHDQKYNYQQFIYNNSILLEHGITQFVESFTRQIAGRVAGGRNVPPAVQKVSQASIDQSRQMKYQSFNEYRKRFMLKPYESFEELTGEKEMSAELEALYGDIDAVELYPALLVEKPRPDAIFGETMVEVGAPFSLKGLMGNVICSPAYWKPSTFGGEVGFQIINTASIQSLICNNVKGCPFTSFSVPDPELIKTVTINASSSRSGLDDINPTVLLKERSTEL

[5] = parameters: method as in PMID 25757568; conditions: cited from earlier work
COX-2 = system: COX-2; parameters: method as in PMID 25757568; conditions: cited from earlier work
FAAH = system: FAAH; parameters: method as in PMID 25757568; conditions: cited from earlier work
COX-1 = system: COX-1; parameters: method as in PMID 25757568; conditions: cited from earlier work
rat brain FAAH [6] = target: T3, rat brain FAAH (Rattus norvegicus, UniProt P97612); assay: FAAH assay: hydrolysis of [3H]AEA by rat brain homogenates; format: biochemical; conditions: for pIC50: 0.5 µM [3H]AEA, rat brain homogenates, read-out: IC50 for inhibition of the hydrolysis of [3H]AEA
T3 construct: hydrolysis of 0.5 µM [^3H]AEA by rat brain homogenates; from tissue; host or cells: rat brain (minus cerebella), washed membrane homogenate
T3 sequence (P97612 1-579): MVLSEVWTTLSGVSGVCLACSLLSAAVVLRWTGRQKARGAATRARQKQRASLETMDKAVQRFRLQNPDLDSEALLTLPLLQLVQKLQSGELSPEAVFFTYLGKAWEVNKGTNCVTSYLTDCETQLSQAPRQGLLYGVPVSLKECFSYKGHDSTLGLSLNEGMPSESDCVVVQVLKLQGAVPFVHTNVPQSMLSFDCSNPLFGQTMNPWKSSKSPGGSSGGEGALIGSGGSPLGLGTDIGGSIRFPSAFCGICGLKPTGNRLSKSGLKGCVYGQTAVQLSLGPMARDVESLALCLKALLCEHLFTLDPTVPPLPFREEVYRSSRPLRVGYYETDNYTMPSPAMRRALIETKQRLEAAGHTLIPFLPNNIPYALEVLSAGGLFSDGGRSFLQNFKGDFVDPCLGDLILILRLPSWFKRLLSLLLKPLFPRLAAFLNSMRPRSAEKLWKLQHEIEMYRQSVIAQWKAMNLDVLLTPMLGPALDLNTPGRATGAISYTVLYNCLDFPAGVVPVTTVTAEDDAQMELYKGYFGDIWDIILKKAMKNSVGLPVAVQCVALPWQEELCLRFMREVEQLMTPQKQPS
Protocol: Frozen (−80 °C) brains (minus cerebella) from adult Wistar or Sprague-Dawley rats were thawed and homogenised in 20 mM HEPES, 1 mM MgCl2, pH 7.0. The homogenates were then centrifuged at ∼35000 x g for 20 min at 4 °C followed by washing (by recentrifugation and by resuspension in the buffer) twice before incubation at 37 °C for 15 min in order to hydrolyse all endogenous FAAH substrates. After a further centrifugation, pellets were resuspended in 50 mM Tris-HCl buffer, pH 7.4, containing 1 mM EDTA and 3 mM MgCl2, and frozen at −80 °C in aliquots until used for the assay. For the FAAH assay, test compounds, homogenates and [^3H]AEA (diluted with non-radioactive AEA to give a substrate concentration of 0.5 μM) in 10 mM Tris- HCl, 1 mM EDTA, pH 7.4, containing 1% w/v fatty acid-free bovine serum albumin were incubated for 10 min at 37 °C. Activated charcoal in 0.5 M HCl was added to adsorb the unmetabolized [^3H]AEA and the samples were mixed and left at r.t. for ∼30 min. Following centrifugation at 2000 g for 10 min, aliquots of the supernatants, containing the [^3H]ethanolamine produced by hydrolysis of [^3H]AEA, were analysed for tritium content by liquid scintillation spectroscopy with quench correction. Blank values were obtained by the use of buffer rather than homogenate.
Data were expressed as % of vehicle (ethanol) control and analysed using the algorithm log(inhibitor) vs. response – variable slope (four parameters) built into the GraphPad Prism computer programme v8.3 for the Macintosh (GraphPad Software Inc., San Diego, CA). The programme reports 95% confidence limits (profile likelihood) for the IC50 values and these presented in the results.

rat brain FAAH [7] = target: T3, rat brain FAAH; assay: FAAH assay: hydrolysis of [3H]AEA by rat brain homogenates; format: biochemical; conditions: kinetics of inhibition of rat FAAH, mixed-type model
ovine COX-1 [8] = target: T1, ovine COX-1; assay: COX-1 assay, oxygen electrode (cyclooxygenation of substrate); format: biochemical; parameters: purchased Cayman Chemical Co. 60100; conditions: 10 µM AA
Protocol: (§1) The assay was performed essentially according to the method of Meade et al[21]. An oxygen electrode chamber with integral stirring (Oxygraph System, Hansatech Instruments, King ´s Lynn, U.K.) was calibrated daily to ambient temperature and air pressure. The assay buffer contained 0.1 M Tris-HCl buffer pH 7.4, 1 μM haematin, 2 mM phenol, 5 mM EDTA, 10 μM substrate (AA or 2-AG) in a final assay volume was 2 ml. After addition of test compound, a baseline was established for 5 min before initiation of reaction by addition of 200 units ovine COX-1 or human recombinant COX-2. The change in oxygen consumption as a measurement of enzyme activity was monitored for approximately 5 min.

human recombinant COX-2 [9] = target: T2, human recombinant COX-2; assay: COX-2 assay, oxygen electrode (cyclooxygenation of AA, 2-AG or AEA); format: biochemical; parameters: purchased Cayman Chemical Co. 60122; conditions: for inhibition of AA cyclooxygenation by COX-2: 10 µM AA
Protocol: as §1

rat brain FAAH [10] = target: T3, rat brain FAAH; conditions: removal of the methyl group at the C-2 carbon atom; cited from earlier work
COX = system: COX; parameters: method as in PMID 28535469; conditions: cited from earlier work

Molecule: 2–(4-isobutylphenyl)-N-(3-methylpyridin-2-yl)propenamide [Ibu-AM5]
analgesic activity, acetic acid-induced visceral nociception [1]: analgesic activity
ulcerogenic potency [2]: without appreciable ulcerogenic potency
pIC50 (ovine COX-1 [3]): ~4.30
effect upon COX-2 with AA as substrate (human recombinant COX-2 [4]; 100 µM Ibu-AM5): without effect
pIC50 (human recombinant COX-2 [4]; read-out: concentration reducing the rate of cyclooxygenation to about half, COX-2, AEA as substrate): ~5.52

Molecule: CCCCCCNC(=O)Oc1cccc(-c2ccc(C(C)C(=O)O)cc2F)c1 (racemic) [ARN2508, (±)−2-[3-fluoro-4-[3-(hexylcarbamoyloxy)phenyl]phenyl]propanoic acid]
anti-inflammatory effects in vivo [5]: produced anti-inflammatory effects in vivo
gastric irritation ([5]; in vivo): without causing gastric irritation
pIC50 (COX-2): 6.38
pIC50 (FAAH): 7.51
pIC50 (COX-1): 7.92

Molecule: CC(C)Cc1ccc(C(C)C(=O)Nc2ccc(O)cc2)cc1 (stereo not drawn) [Ibu-AM65, N-(4-Hydroxyphenyl)-2-(4-isobutylphenyl)propanamide]
pIC50 (rat brain FAAH [6]): 5.42

Molecule: CC(C)Cc1ccc(C(C)C(=O)Nc2ncccc2Br)cc1 (stereo not drawn) [Ibu-AM68, N-(3-Bromopyridin-2-yl)−2-(4-isobutylphenyl)propanamide]
pKi (rat brain FAAH [7]): 6.59
α value (ratio of the Ki intercept: Ki slope values) (rat brain FAAH [7]): 4.9
inhibition of AA cyclooxygenation by COX-1 (ovine COX-1 [8]; 10 µM compound): modest inhibition
inhibition of AA cyclooxygenation by COX-1 (ovine COX-1 [8]; 50 and 100 µM compound): complete inhibition
inhibition of 2-AG cyclooxygenation by COX-2 (human recombinant COX-2 [9]; 10 µM compound, 10 µM 2-AG): greatly reduced; also recorded: almost completely inhibited
inhibition of AA cyclooxygenation by COX-2 (human recombinant COX-2 [9]; 10 µM compound): did not inhibit
inhibition of AA cyclooxygenation by COX-2 (human recombinant COX-2 [9]; 50 and 100 µM compound): did not inhibit
pIC50 (rat brain FAAH [6]): 7.08
mode of inhibition of FAAH (rat brain FAAH [6]; 60 min preincubation, 20-fold dilution, kinetic experiments): reversible, mixed-type mechanism of inhibition; also recorded: reversible mixed inhibitor
time-dependence of the inhibition (rat brain FAAH [6]; preincubation with homogenates for up to 60 min prior to addition of substrate): no time-dependence of the inhibition

Molecule: CC(C)Cc1ccc(C(C)C(=O)Nc2ncccc2O)cc1 (stereo not drawn) [Ibu-AM70, N-(3-Hydroxypyridin-2-yl)-2-(4-isobutylphenyl)propenamide]
pIC50 (rat brain FAAH [6]): 5.57

Molecule: Cc1cccnc1NC(=O)C1(c2ccc(CC(C)C)cc2)CC1 [Ibu-AM73]
pIC50 (rat brain FAAH [6]): 5.39

Molecule: Cc1cccnc1NC(=O)Cc1ccc(CC(C)C)cc1 [Ibufenac-AM1]
reduction of FAAH inhibitory potency relative to Ibu-AM5 (rat brain FAAH [10]): roughly 60 fold

Molecule: N-(3-chloropyridin-2-yl)−2–(4-((2-(trifluoromethyl)pyridin-4-yl)amino)phenyl)propenamide [TPA-14]
COX-inhibitory potency (COX): lacked COX-inhibitory potency

The next lines start with the values.

pIC50 (rat brain FAAH [6]): 5.70
Molecule: Cc1ccccc1NC(=O)C(C)c1ccc(CC(C)C)cc1 (stereo not drawn) [Ibu-AM38, 2–(4-Isobutylphenyl)-N-(o-tolyl)propanamide]

pIC50 (rat brain FAAH [6]): 6.04
Molecule: CC(C)Cc1ccc(C(C)C(=O)Nc2ncccc2Cl)cc1 (stereo not drawn) [Ibu-AM58, N-(3-Chloropyridin-2-yl)-2-(4-isobutylphenyl)propanamide]

pIC50 (rat brain FAAH [6]): 5.07
Molecule: CC(C)Cc1ccc(C(C)C(=O)Nc2ccccc2O)cc1 (stereo not drawn) [Ibu-AM59, N-(2-Hydroxyphenyl)-2-(4-isobutylphenyl)propanamide]

melting point: 112 to 114 °C
pIC50 (rat brain FAAH [6]): 6.44
Molecule: CC(C)Cc1ccc(C(C)C(=O)Nc2ncccc2C(F)(F)F)cc1 (stereo not drawn) [Ibu-AM60, 2-(4-Isobutylphenyl)-N-(3-(trifluoromethyl)pyridin-2-yl)propanamide]

melting point: 133 to 135 °C
pIC50 (rat brain FAAH [6]): 6.46
Molecule: Cc1cc(O)ccc1NC(=O)C(C)c1ccc(CC(C)C)cc1 (stereo not drawn) [Ibu-AM66, N-(4-Hydroxy-2-methylphenyl)-2-(4-isobutylphenyl)propanamide]

melting point: 100 to 102 °C
pIC50 (rat brain FAAH [6]): 5.10
Molecule: COc1ccc(NC(=O)C(C)c2ccc(CC(C)C)cc2)c(C)c1 (stereo not drawn) [Ibu-AM67, 2-(4-Isobutylphenyl)-N-(4-methoxy-2-methylphenyl)propanamide]

pIC50 (rat brain FAAH [6]): 6.92
Molecule: CC(C)Cc1ccc(C(C)C(=O)Nc2ncccc2I)cc1 (stereo not drawn) [Ibu-AM69, N-(3-Iodopyridin-2-yl)-2-(4-isobutylphenyl)propanamide]

pIC50 (rat brain FAAH [6]): 6.00
Molecule: Cc1cccnc1NC(=O)C(C)(C)c1ccc(CC(C)C)cc1 [Ibu-AM72, 2-(4-Isobutylphenyl)-2-methyl-N-(3-methylpyridin-2-yl)propanamide]
